Results from a melting point compilation (Tetko et al.; mined from patent text by program, amines drawn as free bases though some values may be those of a salt).

Structure (SMILES) | melting point
OCc1cn2c(n1)CN=C(c1ccccc1)c1cc(Cl)ccc1-2 | 203 to 204 °C
C#CCOc1ccc2ccc(=O)oc2c1 | 118 °C
N#CC1(N2CCCCC2)CCCCC1 | 66 to 68 °C
CC(=O)CCCCCCC(=O)c1ccc(OCc2ccccc2)c(OCc2ccccc2)c1 | 64 to 66 °C
CCCSc1nc(C)c(CO)n1-c1ccccc1Cl | 98 to 101 °C
CC1=CC(O)C(OC(=O)c2ccc(Cl)cc2)C(C)(C)CC1=O (stereo not given) | 114 to 116 °C
CC(=O)c1ccc(F)c(COc2ccc(S(=O)(=O)c3ccc(C)nc3Nc3c(C)cc(C)cc3C)cc2)c1 | 141 to 143 °C
COc1cc(Nc2nccc(-c3ccc(NCCCO)cc3)n2)cc(OC)c1OC | 86 to 90 °C
CC(C)(C)OC(=O)c1nc(-c2ccccc2)[nH]c1-c1cnccn1 | 196 to 197 °C
O=C(Nc1cccc(C(F)(F)F)c1)c1cccnc1NCc1ccncc1 | 152 to 153 °C
NC(=O)C1(Nc2ccccc2)CCN(C2CCC(c3ccc(F)cc3)(c3ccc(F)cc3)CC2)CC1 | 224 to 227 °C
O=C(O)CCCCCCCCCCOc1ccccc1OCc1ccccc1 | 62 to 63 °C
O=C(O)c1ccccc1OCCN1CCC(c2cn(CCOc3ccc4c(c3)OCO4)c3ccccc23)CC1 | 123 to 125 °C
NC(=O)c1cc(Cl)c([N+](=O)[O-])cc1[N+](=O)[O-] | 201 to 203 °C
CC(=O)Oc1cc(OC(C)=O)c2c(c1)Oc1ccccc1C2C#N (stereo not given) | 160 to 161 °C
O=C1C=C(NC(=O)C(=O)c2cn(Cc3c(F)cccc3F)c3ccccc23)CO1 | 252 to 256 °C
Cc1cc(=O)n(-c2cc(OC(C)C)c(Cl)cc2F)c(=O)n1C | 149 to 151 °C
Cn1ncc(/C=C/C(=O)Nc2ccc(Cc3nc4ccccc4[nH]3)cc2)c1-c1ccc(F)cc1 | > 300 °C
COC(=O)[C@@H]1[C@H](C(C)C)N1S(=O)(=O)c1ccc(C)cc1 (stereo not given in full) | 52 to 54 °C
CSc1ncc2cc(Br)c(=O)[nH]c2n1 | 266 to 270 °C
COc1ccc2[nH]c(S(=O)Cc3nccc(N4CCOCC4)c3F)nc2c1 (stereo not given) | 142 to 146 °C
Cn1nc(-c2c(F)cccc2Cl)nc1-c1cc(-c2cccc(C(F)(F)F)c2)sc1Cl | 53 to 54 °C

Structure (SMILES) | melting point
CC(C)c1ccc(S(=O)(=O)n2c(CCCC(=O)O)cc3nc(C(F)(F)F)ccc32)cc1 | 144 °C
CCCCCCCCCCCCCCC/C=C/C=O | 35 °C
CCn1cc(C(=O)O)c(=O)c2cc(F)c(N3CC4CC3CN4)c(F)c21 (stereo not given) | 233 to 236 °C
CCCCS(=O)(=O)c1ccccc1C(=O)O | 72.5 to 73.5 °C
CC(=O)c1cc(C)c(NC(=O)c2cc(C(F)(F)F)nn2-c2ncccc2Cl)c(C(=O)NC(C)C)c1 | 135 to 137 °C
OCC1Cc2sccc2CN1 (racemic) | 110 °C
[N-]=[N+]=NCc1ccc(C(=O)O)c(Cl)c1 | 87 to 88 °C
Cc1nc(CN)c2n1-c1ccc(Cl)cc1C(c1ccccc1)=NC2 | 217 to 219 °C
CC1=N/C(=C\c2c[nH]c3ncccc23)C(=O)N1CCN1CCOCC1 | 235 to 240 °C
CC(Cc1ccc(OCCO)cc1)NCC(O)c1ccccc1F (stereo not given) | 80 to 95 °C
COC(OC)c1cccc(NCc2ccccc2)c1 | 55 to 56 °C
Nc1ncc(-c2ccc(=O)[nH]n2)c(-c2cccnc2)n1 | 256 °C
COC(=O)c1cncn1C1c2ccccc2C(F)(F)C1(C)C (stereo not given) | 96 to 97 °C
C=C1C[C@@H]2[C@H](CC[C@]3(C)C(=O)CC[C@@H]23)[C@@]2(C)CCC(=O)C=C12 | 155 to 160 °C
CCCCCCCOc1ccc(C(N)=O)cc1 | 149 to 152 °C
CCC(O)(CC)Cc1ccc(NC(=O)/C=C/c2cnn(C)c2-c2ccc(F)cc2)cc1 | 150 to 151 °C
CC(C)(CN)Nc1ncc2ncnc(Nc3ccc(F)c(Cl)c3)c2n1 | 196 to 201 °C
CC(=O)Nc1cccc2c1CCN(C)C2 | 138 to 139 °C
Cc1nc(-c2ccccc2)nc(OCC(=O)Nc2ccccc2)c1C | 212 to 213 °C
Cc1cc(NC(=O)C(C)(O)COc2ccccc2F)ccc1[N+](=O)[O-] (stereo not given) | 94 to 96 °C
CN1CCN(c2nc(-c3ccccc3)nc3nc(-c4ccncc4)[nH]c23)CC1 | 333 to 337 °C
N#Cc1nn(-c2c(Cl)cc(C(F)(F)F)cc2Cl)c([N+](=O)[O-])c1OC(F)F | 72.5 to 74 °C

The remaining lines, values ahead:

melting point | Structure (SMILES)
160 °C | CC(=O)OC1CSC(Oc2cccnc2-c2ccco2)C(OC(C)=O)C1OC(C)=O (stereo not given)
237 to 238 °C | Cc1[nH]c(=O)c(C#N)cc1C(=O)n1ccnc1
144 to 145 °C | CN(C)NC(=O)c1c([Si](C)(C)C)ccc(Cl)c1Cl
145 to 146 °C | Nc1ccccc1-n1sc(-c2ccccc2)cc1=O
216 to 217 °C | CNc1nc(Cl)nc2cc(OC)c(OC)cc12
101 to 103 °C | COC(=O)c1cc(C)nc(OC)n1
52 to 53 °C | Cc1cccc(C(=O)Cc2ccccc2)c1C
72 to 77 °C | CSCc1cc([N+](=O)[O-])ccc1N
63 to 65 °C | CSc1ncc(Br)cn1
195 to 200 °C | Cc1cc2c3c(c1)C(c1ccccc1)C(=O)N3CC(=O)N2 (stereo not given)
95 to 97 °C | CC(C)(C)OC(=O)NC(=NS(=O)(=O)C(F)(F)F)NC(=O)OCc1ccccc1
225 to 228 °C | CCN(CC)C(=O)N[C@H]1CC[C@H](NC(=O)N(CC)CC)CC1
110 to 111 °C | CC(=O)c1ccc(OCCCC(=O)O)cc1F
233 to 235 °C | O=C1NCCSC1=NO
82 to 84 °C | CCCCCCC(=O)c1ccc(O)c(Cl)c1Cl
67 to 68 °C | CCCCCCCCCCCN=C1SC(=CC(=O)O)C(=O)N1CCCCCCCCCCC
172 to 174 °C | CCOC(=O)c1nc2n(c(=O)c1O)CCOC2
139 to 140 °C | COC(=O)c1cc(CCC(=O)NCc2ccccc2)ccc1O
178 to 188 °C | CCCc1nc2c(N)nc3ccccc3c2n1CCCCN(OC)S(C)(=O)=O
228 to 230 °C | O=c1c2cc(F)c(N3CCCC3)c(F)c2n(C2CC2)c(=O)n1O
90 to 92 °C | O=C1C(=O)c2ccccc2C2=C1SCC1(CCN(Cc3c(F)cccc3Cl)CC1)O2

melting point | Structure (SMILES)
180 to 181 °C | Cc1ccc(C(=O)OCCO)cc1-n1c(C)cc(OCc2ccc(F)cc2CNC(=O)Nc2cc(C(C)(C)C)nn2-c2cccc(OCCO)c2)c(Cl)c1=O
142 to 145 °C | Cc1cc(-c2cc(N)ccc2F)cc(C)n1
220 to 222 °C | O=C1OC(=O)c2cc(N3C(=O)CCCC3=O)ccc21
124 to 127 °C | CCOC(=O)[C@H](CSC[C@H](Cc1ccccc1)NC(=O)OCc1ccccc1)N[C@@H](C)C(=O)O
197 to 198 °C | O=C(c1ccc(-c2ccc3c(c2)CCN(C2CCN(Cc4ccccc4)CC2)C3=O)cc1)N1CCCC1
163 to 164 °C | C=CCOc1ccc(C(=O)O)cc1
119 to 120 °C | COc1cc(C=O)ccc1OCc1coc(-c2ccccc2)n1
83 to 84 °C | COc1cc(C(O)c2ccc(C)cc2)cc(C2OCCCO2)c1OC (stereo not given)
75.3 to 77.4 °C | CC(Br)C(=O)NOCc1ccccc1 (stereo not given)
> 200 °C | O=c1[nH]c2scnc2c2ccccc12
80 to 83 °C | COC(=O)c1ccc2ccc(OC)cc2c1O
68 to 70 °C | COc1cccc(C23CCCC(C2)N(C)C3=O)c1 (stereo not given)
98 to 99 °C | Fc1ccc(-c2nc(CCCSc3ccccc3)[nH]c2-c2ccncc2)cc1
180 to 181 °C | CC(=O)OCC1OC(n2cc(C)c(NO)nc2=O)CC1F (stereo not given)
101 to 103 °C | Fc1ccc(CNc2nc(OCc3ccccc3)nc(OCC(F)(F)F)n2)cc1
89 to 91 °C | CC(=O)NC[C@H]1CN(c2ccc3c(c2)CC[C@@H](C)N3C=O)C(=O)O1
165 to 166 °C | Cc1cn2c(n1)Cc1cc3c(cc1C(c1ccc(N)cc1)=N2)OCO3
193 to 195 °C | CC(=O)N(O)C(C)c1cccc(Nc2ccccc2C(=O)NN)c1Cl (stereo not given)
73 °C | CC(=O)C(=Cc1ccc(Cl)c(Cl)c1)C(C)=O
211 °C | N#CC(=Cc1ccsc1)C(=O)O
83 to 85 °C | COC(=O)c1ccc(S(=O)(=O)N2CC[C@@H](Sc3cc(C(C)(C)C)c(O)c(C(C)(C)C)c3)C2)n1C

melting point | Structure (SMILES)
203 to 205 °C | CCc1nnc2c(Cl)nc3cc(F)ccc3n12
122 to 123 °C | CC(C)c1nn(-c2ccc(C(F)(F)F)cn2)cc1CCCOc1nn(C)cc1CC(=O)O
130 to 132 °C | Cc1c(CNc2cccc(N)n2)c(C)c(CNc2cccc(N)n2)c(C)c1CNc1cccc(N)n1
142 °C | CC1OC(N2CC(C)(I)C(=O)NC2=O)CC1O[Si](c1ccccc1)(c1ccccc1)C(C)(C)C (stereo not given)
128 to 130 °C | CC(C)Cc1nc2ccc(C#N)cc2c(-c2ccccc2)c1CN
209 to 210 °C | COC(=O)NC1=NCC(c2ccc(I)cc2)CN1 (stereo not given)
102 °C | CC(=O)CSc1nc2ccc(Cc3ccccc3)cc2[nH]1
171 to 172 °C | COc1cc(COc2nn(-c3ccccc3)cc2C=O)ccc1OCc1sc(-c2ccccc2)nc1C
108 °C | CC1SC(c2cccnc2)N(CC(=O)OC(C)(C)C)C1=O (stereo not given)
97 to 99 °C | CSC1=Nc2ccccc2C2=NCC(Cn3ccnc3)N12 (stereo not given)
261 to 266 °C | O=c1[nH]c2ccc(S(=O)(=O)NCCBr)cc2[nH]c1=O
253 to 254 °C | O=c1nc(-c2ccccn2)sc2ccc(Br)cc12
73 to 75 °C | CCCc1c(C(=O)OCC)sc(NC(=O)C(=O)OCC)c1[N+](=O)[O-]
56.9 °C | Oc1ccc(C=C2C3=CC=CCC3=CCc3ccccc32)cc1
203 to 205 °C | Cc1cc2c(cc1F)N(C(=O)Nc1cccnc1)CC2
45 to 47 °C | CCCCOC(=O)CCCCSc1cc(C)nc(N)n1
184 to 185 °C | COc1ccccc1N1CCN(C(=O)Nc2nc(C)c(C)nc2OC)CC1
198 to 199 °C | Nc1nc2c(s1)CCN(CC=Cc1cc(Br)c(N)c(Br)c1)CC2
196 to 200 °C | CC1=C(C)C(=O)N(CC(=O)N2c3ccccc3N(Cc3ccccc3)C(=O)[C@H]3CCC[C@H]32)C1=O (relative stereo)
